Some test systems named below: MCF7; SK-MEL-2; PC-3; OVCAR-8; ACHN; RXF 393; SN12C; HCT-15; HOP-62; A549; SR; SF-295; HT-29; IGROV-1; SK-MEL-28; KM12; A498; NCI-H522; SK-OV-3; MOLT-4.
Holding throughout (assay): NCI tumour cell line growth inhibition, 48 h

The structures appear in SMILES notation.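 Assay format: 96-well plates, 48-hour exposure. Here, GI50 denotes the concentration required for 50% inhibition of growth.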 Activity calls are given as the source filed them. Rule as the data show it: active = GI50 up to about 1.1 µM and inactive = higher.

Regarding `S=c1nc(N2CCCCC2)c2cn[nH]c2[nH]1`, the GI50 in the test on MCF7 is 34.6 µM (inactive); in the test on SK-MEL-2 it was 20.1 µM (inactive); in the test with PC-3, 59.2 µM (inactive); in the test with OVCAR-8, 64.9 µM (inactive); in the test with ACHN it was 54.6 µM (inactive); in the test on RXF 393, 91.8 µM (inactive). The GI50 was 79.8 µM (inactive) in the test with SN12C; 87.9 µM in the test with HCT-15; > 100 µM (inactive) with HOP-62; 76.7 µM (inactive) with A549; 14.5 µM (inactive) with SR; 59.6 µM (inactive) in the test on SF-295. Besides, the GI50 is 41.8 µM (inactive) with HT-29; 22.1 µM (inactive) in the test with IGROV-1; 65.6 µM (inactive) with SK-MEL-28; 29.5 µM (inactive) in the test with KM12; > 100 µM (inactive) with A498; 16.7 µM (inactive) with NCI-H522.

As for `O=C(/C=C/c1ccc(C(F)(F)F)cc1)c1c([O-])on[n+]1-c1ccccc1`, the GI50 was 14.3 µM (inactive) with SK-OV-3; 1.15 µM (inactive) in the test with MCF7; 2.81 µM (inactive) with SK-MEL-2; 3.19 µM (inactive) with PC-3; 1.92 µM (inactive) in the test on OVCAR-8; 1.51 µM (inactive) with ACHN. Further, the GI50 is 0.284 µM (active) with MOLT-4; 1.27 µM (inactive) in the test on RXF 393; 2.23 µM (inactive) in the test on SN12C; 1.31 µM in the test with HCT-15; 3.95 µM (inactive) in the test with HOP-62; 4.03 µM (inactive) with A549. Also, the GI50 in the test on SR is 0.196 µM (active); in the test on SF-295, 3.6 µM (inactive); with HT-29 it was 0.889 µM (active); in the test with IGROV-1, 1.86 µM (inactive); with SK-MEL-28 it was 1.61 µM (inactive); in the test on KM12, 1.83 µM (inactive). Moreover, the GI50 in the test on A498 is 7.05 µM (inactive).

`CCCCCCCCCCC/C=C(/C(=O)CCCO[Si](C)(C)C(C)(C)C)C(=O)OC`: the GI50 in the test with SK-OV-3, in the test with MCF7, with SK-MEL-2, with PC-3, with OVCAR-8 and in the test on ACHN was > 100 µM (inactive) in each case. Moreover, the GI50 in the test on MOLT-4 is > 100 µM (inactive); with RXF 393 it was > 100 µM (inactive); in the test on SN12C, > 100 µM (inactive); in the test on HCT-15, over 100 µM; in the test with HOP-62 it was > 100 µM (inactive); with SR, > 100 µM (inactive). Moreover, the GI50 in the test with SF-295, in the test with HT-29, in the test on IGROV-1, in the test on SK-MEL-28, in the test with KM12 and with A498 was > 100 µM (inactive) each time. Further, in the test on NCI-H522, the GI50 was > 100 µM (inactive).

Turning to `N=c1oc2cc(O)ccc2cc1C(=O)Nc1cccc2ccccc12`, the GI50 was 6.65 µM (inactive) with SK-OV-3; 3.93 µM (inactive) in the test on MCF7; 3.05 µM (inactive) in the test on PC-3; 4.78 µM (inactive) in the test with OVCAR-8; 3.99 µM (inactive) in the test with ACHN; 2.7 µM (inactive) with MOLT-4. In addition, the GI50 is 4.91 µM (inactive) with RXF 393; 5.33 µM (inactive) in the test with SN12C; 2.67 µM with HCT-15; 11.3 µM (inactive) in the test with HOP-62; 5.37 µM (inactive) in the test on A549; 1.67 µM (inactive) in the test on SR. Also, the GI50 in the test with SF-295 is 5.18 µM (inactive); in the test on HT-29, 7.6 µM (inactive); in the test with IGROV-1, 3.27 µM (inactive); with SK-MEL-28, 6.34 µM (inactive); in the test with KM12, 3.75 µM (inactive); in the test on A498 it was 5.25 µM (inactive). The GI50 in the test with NCI-H522 is 1.65 µM (inactive).

Take `COc1ccc(C2CC(C)(O)Oc3cc4c(cc32)OCO4)cc1` (stereo not drawn): the GI50 in the test with MCF7 was 34.9 µM (inactive); with SK-MEL-2, 15.8 µM (inactive); in the test with PC-3, 18.7 µM (inactive); in the test on OVCAR-8, 35 µM (inactive); in the test with ACHN it was 43.2 µM (inactive); in the test with MOLT-4, 22.1 µM (inactive). Besides, the GI50 with RXF 393 was 0.0855 µM (active); in the test on SN12C, 45.8 µM (inactive); with HCT-15 it was 23.8 µM; in the test on HOP-62 it was 40.1 µM (inactive); with A549, 30.5 µM (inactive); in the test on SR it was 24.2 µM (inactive). Besides, the GI50 in the test with SF-295 was 30.8 µM (inactive); with HT-29, 24.9 µM (inactive); in the test on IGROV-1, 29.5 µM (inactive); with SK-MEL-28, 45.6 µM (inactive); with KM12, 27.3 µM (inactive); with A498 it was 30.9 µM (inactive). Besides, in the test with NCI-H522, the GI50 was 11.2 µM (inactive).

Take `Nc1ncc2c(n1)-c1ccccc1OC2N1CCCCC1` (stereo not drawn): the GI50 in the test with SK-OV-3, in the test with MCF7, with SK-MEL-2, in the test on PC-3, in the test with OVCAR-8 and with ACHN was > 100 µM (inactive) each time. In addition, the GI50 in the test with MOLT-4 is > 100 µM (inactive); in the test with RXF 393 it was > 100 µM (inactive); with SN12C, > 100 µM (inactive); in the test with HCT-15, over 100 µM; in the test with A549, > 100 µM (inactive); in the test on SR it was > 100 µM (inactive). Also, the GI50 in the test with SF-295, in the test with HT-29, in the test on IGROV-1, with KM12, in the test on A498 and in the test on NCI-H522 was > 100 µM (inactive) in each case.

As for `CCOC(=O)Nn1cnnc1C`, the GI50 in the test on SK-OV-3, with MCF7, in the test on SK-MEL-2, in the test on PC-3, with OVCAR-8 and in the test with ACHN was > 100 µM (inactive) throughout. For the same compound, the GI50 was > 100 µM (inactive) in the test on MOLT-4; > 100 µM (inactive) in the test on RXF 393; > 100 µM (inactive) with SN12C; over 100 µM in the test on HCT-15; > 100 µM (inactive) in the test on HOP-62; > 100 µM (inactive) in the test on A549. For the same compound, the GI50 in the test with SR, in the test with SF-295, in the test with HT-29, in the test on IGROV-1, in the test on KM12 and in the test on A498 was > 100 µM (inactive) throughout. For the same compound, the GI50 in the test with NCI-H522 was > 100 µM (inactive).

Turning to `CCOC(=O)c1c2ccccc2n2c(=O)n(-c3ccc(OC)cc3)nnc12`, the GI50 was 26.7 µM (inactive) in the test with SK-OV-3; 0.555 µM (active) in the test on MCF7; 22.8 µM (inactive) with SK-MEL-2; 18.2 µM (inactive) with PC-3; 20.6 µM (inactive) in the test with OVCAR-8; 31.1 µM (inactive) in the test on ACHN. Further, the GI50 is 19 µM (inactive) in the test on RXF 393; > 83.8 µM (inactive) in the test with SN12C; over 58.6 µM with HCT-15; 21.1 µM (inactive) in the test on HOP-62; 46.5 µM (inactive) in the test with A549; 38.7 µM (inactive) in the test with SR. For the same compound, the GI50 with SF-295 was 20.3 µM (inactive); with IGROV-1, 17.5 µM (inactive); in the test on SK-MEL-28 it was 65.6 µM (inactive); with KM12 it was 88.1 µM (inactive); in the test with A498 it was 44.3 µM (inactive).

(Values after ChEMBL document CHEMBL1201862, “PubChem BioAssay data set” (2004).)
